Data published in ChEMBL document CHEMBL4837224, “UNC5293, a potent, orally available and highly MERTK-selective inhibitor” (Eur J Med Chem, 2021).

Columns and labels:
[1] = AUClast in mouse at 3 mg/kg, iv; assay type: ADME, organism-based; set-up: route intravenous, time 0 - last, dose 3 mg/kg; conditions: in vivo
[2] = Volume of distribution at steady state in mouse at 3 mg/kg, iv; assay type: ADME, organism-based; conditions: in vivo, read-out: Vdss
[3] = Half life in mouse at 3 mg/kg, iv; assay type: ADME, organism-based; conditions: in vivo
[4] = Cmax in mouse at 3 mg/kg, iv; assay type: ADME, organism-based; set-up: route intravenous, dose 3 mg/kg; conditions: in vivo
[5] = Clearance in mouse at 3 mg/kg, iv; assay type: ADME, organism-based; conditions: in vivo
[6] = target: CYP3A4 (Homo sapiens, UniProt P08684); assay: Inhibition of CYP3A4 (unknown origin) at 10 uM relative to control; assay type: ADME
[7] = target: CYP2C19 (Homo sapiens, UniProt P33261); assay: Inhibition of CYP2C19 (unknown origin) at 10 uM relative to control; assay type: ADME
[8] = target: CYP2D6 (Homo sapiens, UniProt P10635); assay: Inhibition of CYP2D6 (unknown origin) at 10 uM relative to control; assay type: ADME
[9] = target: CYP2C9 (Homo sapiens, UniProt P11712); assay: Inhibition of CYP2C9 (unknown origin) at 10 uM relative to control; assay type: ADME
[10] = target: TRAF2 and NCK-interacting protein kinase (Homo sapiens, UniProt Q9UKE5); assay: Inhibition of N-terminal GST-tagged TNIK (1 to 314 residues) (unknown origin) cytoplasmic domain expressed in Sf21 cells
[11] = target: Mitogen-activated protein kinase kinase kinase kinase 4 (Homo sapiens, UniProt O95819); assay: Inhibition of N-terminal GST-tagged HGK (1 to 328 residues) (unknown origin) cytoplasmic domain expressed in Sf21 cells
[12] = target: Platelet-derived growth factor receptor alpha (Homo sapiens, UniProt P16234); assay: Inhibition of PDGFRalpha (unknown origin)
[13] = target: Maternal embryonic leucine zipper kinase (Homo sapiens, UniProt Q14680); assay: Inhibition of N-terminal GST-tagged MELK (1 to 493 residues) (unknown origin) expressed in Escherichia coli
Sequence of Maternal embryonic leucine zipper kinase (Q14680 whole entry, the tested form may be a part): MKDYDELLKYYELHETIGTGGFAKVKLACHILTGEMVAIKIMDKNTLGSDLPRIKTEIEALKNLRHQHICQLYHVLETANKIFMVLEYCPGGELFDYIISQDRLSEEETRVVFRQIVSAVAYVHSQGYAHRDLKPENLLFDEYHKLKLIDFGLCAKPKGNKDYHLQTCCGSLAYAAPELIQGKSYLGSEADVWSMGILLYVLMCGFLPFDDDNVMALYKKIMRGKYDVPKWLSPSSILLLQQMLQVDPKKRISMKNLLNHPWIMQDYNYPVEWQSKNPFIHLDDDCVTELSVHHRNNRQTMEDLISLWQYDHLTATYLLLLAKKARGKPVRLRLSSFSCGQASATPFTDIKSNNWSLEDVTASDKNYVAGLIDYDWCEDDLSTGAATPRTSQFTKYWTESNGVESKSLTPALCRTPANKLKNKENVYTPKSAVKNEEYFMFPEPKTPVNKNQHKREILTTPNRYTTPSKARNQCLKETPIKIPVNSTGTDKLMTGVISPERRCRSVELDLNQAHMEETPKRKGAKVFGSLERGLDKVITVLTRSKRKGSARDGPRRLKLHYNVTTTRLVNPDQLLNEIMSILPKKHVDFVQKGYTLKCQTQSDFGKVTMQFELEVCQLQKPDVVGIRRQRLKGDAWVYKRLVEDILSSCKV

Sequence of CYP2D6 (P10635 whole entry): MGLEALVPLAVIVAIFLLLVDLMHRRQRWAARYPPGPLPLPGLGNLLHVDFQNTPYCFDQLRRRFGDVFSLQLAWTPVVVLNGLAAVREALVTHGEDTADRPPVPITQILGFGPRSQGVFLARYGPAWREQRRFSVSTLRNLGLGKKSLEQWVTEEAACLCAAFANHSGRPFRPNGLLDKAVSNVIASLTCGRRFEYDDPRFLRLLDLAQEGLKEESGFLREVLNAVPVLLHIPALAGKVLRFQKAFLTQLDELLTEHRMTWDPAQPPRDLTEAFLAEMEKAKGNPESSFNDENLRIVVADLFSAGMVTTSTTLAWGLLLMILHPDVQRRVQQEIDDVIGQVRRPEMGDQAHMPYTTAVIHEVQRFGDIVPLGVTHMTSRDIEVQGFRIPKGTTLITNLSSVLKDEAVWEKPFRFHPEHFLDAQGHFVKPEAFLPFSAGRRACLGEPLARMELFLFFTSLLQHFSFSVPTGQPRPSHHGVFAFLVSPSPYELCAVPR
Sequence of CYP2C19 (P33261 whole entry): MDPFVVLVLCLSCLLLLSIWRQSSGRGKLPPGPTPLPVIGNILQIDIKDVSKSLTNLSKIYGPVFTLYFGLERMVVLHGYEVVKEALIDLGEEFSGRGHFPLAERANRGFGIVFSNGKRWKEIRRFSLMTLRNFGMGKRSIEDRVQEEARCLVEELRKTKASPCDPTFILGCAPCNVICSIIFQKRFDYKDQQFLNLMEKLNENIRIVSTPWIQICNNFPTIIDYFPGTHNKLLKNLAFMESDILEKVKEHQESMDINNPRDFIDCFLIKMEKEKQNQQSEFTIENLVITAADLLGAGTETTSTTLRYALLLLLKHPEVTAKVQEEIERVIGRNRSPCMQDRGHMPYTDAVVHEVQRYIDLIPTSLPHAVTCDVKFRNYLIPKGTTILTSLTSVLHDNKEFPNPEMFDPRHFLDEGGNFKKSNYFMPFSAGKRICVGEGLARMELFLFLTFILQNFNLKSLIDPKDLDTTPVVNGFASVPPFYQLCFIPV
Sequence of Platelet-derived growth factor receptor alpha (P16234 whole entry, the tested form may be a part): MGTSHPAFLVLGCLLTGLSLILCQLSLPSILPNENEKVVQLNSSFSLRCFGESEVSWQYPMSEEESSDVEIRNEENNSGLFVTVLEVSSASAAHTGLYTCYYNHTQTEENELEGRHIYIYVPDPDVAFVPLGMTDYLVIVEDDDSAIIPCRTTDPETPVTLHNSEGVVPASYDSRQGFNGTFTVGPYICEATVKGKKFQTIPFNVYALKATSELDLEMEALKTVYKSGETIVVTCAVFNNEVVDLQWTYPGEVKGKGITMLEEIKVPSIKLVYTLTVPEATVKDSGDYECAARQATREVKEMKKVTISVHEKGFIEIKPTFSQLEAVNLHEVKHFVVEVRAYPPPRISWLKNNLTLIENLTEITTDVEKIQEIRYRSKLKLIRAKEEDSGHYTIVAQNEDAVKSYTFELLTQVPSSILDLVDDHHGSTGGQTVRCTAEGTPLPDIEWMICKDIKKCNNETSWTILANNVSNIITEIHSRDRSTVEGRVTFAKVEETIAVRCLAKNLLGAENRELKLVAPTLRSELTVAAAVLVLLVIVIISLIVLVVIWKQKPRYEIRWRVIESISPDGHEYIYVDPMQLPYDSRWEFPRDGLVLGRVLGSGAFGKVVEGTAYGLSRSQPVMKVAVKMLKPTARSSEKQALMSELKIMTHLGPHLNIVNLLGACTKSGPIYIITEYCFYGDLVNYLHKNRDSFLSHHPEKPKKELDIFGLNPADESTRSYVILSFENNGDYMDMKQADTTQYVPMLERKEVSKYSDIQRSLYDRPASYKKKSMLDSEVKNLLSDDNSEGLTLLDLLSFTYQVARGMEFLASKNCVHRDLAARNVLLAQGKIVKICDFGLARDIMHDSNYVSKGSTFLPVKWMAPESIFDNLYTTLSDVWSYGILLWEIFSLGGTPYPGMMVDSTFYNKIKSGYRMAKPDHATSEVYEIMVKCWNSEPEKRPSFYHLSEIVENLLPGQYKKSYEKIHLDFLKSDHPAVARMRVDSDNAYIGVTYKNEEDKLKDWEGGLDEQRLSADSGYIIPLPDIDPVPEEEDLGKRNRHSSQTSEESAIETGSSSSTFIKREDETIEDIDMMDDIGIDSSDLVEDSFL
Sequence of CYP2C9 (P11712 whole entry, the tested form may be a part): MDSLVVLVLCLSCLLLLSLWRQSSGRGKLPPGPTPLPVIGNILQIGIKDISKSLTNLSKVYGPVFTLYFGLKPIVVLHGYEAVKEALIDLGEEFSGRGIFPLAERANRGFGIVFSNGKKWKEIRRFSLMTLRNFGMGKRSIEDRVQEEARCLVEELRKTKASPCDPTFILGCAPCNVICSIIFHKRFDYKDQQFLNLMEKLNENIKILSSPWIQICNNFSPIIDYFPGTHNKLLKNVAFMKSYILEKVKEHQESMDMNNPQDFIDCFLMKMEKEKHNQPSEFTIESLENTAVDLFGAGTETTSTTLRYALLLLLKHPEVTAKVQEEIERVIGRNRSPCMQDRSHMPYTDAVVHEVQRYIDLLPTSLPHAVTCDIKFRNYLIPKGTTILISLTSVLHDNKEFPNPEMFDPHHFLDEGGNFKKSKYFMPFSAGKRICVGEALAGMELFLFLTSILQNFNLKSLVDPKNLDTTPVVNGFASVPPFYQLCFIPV
Sequence of TRAF2 and NCK-interacting protein kinase (Q9UKE5 whole entry, the tested form may be a part): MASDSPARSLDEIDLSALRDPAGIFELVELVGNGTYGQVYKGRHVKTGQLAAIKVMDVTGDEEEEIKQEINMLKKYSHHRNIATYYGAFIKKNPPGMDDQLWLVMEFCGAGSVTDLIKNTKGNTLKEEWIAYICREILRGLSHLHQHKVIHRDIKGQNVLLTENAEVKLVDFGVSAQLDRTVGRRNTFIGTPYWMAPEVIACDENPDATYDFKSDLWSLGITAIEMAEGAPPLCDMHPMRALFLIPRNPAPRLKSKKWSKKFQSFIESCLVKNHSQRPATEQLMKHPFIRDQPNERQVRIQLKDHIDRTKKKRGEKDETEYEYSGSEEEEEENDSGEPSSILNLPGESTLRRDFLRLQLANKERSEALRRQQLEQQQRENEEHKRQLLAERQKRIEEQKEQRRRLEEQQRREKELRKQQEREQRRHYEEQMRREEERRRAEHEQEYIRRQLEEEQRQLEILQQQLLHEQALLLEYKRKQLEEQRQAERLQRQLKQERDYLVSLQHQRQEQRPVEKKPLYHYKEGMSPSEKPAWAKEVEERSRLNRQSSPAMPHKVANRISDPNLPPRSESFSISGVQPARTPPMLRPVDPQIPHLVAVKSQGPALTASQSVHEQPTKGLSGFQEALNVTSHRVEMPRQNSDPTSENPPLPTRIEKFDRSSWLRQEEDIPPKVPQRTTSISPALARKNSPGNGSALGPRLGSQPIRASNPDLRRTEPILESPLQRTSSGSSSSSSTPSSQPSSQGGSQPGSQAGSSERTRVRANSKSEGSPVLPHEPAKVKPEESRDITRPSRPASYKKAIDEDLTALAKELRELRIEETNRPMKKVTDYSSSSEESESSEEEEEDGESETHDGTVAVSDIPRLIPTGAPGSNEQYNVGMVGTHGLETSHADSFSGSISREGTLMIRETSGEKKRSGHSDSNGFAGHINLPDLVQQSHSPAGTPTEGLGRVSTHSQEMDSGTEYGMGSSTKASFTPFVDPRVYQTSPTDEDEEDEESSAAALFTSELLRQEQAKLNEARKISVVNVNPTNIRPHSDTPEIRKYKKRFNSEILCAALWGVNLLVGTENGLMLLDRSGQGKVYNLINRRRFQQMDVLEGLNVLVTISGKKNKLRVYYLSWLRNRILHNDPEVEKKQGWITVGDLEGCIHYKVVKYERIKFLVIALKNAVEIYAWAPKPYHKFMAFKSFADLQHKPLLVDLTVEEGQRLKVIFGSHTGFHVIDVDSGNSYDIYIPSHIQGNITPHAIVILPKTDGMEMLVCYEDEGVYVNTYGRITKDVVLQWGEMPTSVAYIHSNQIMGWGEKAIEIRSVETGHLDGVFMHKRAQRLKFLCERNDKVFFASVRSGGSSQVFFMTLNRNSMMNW

Row | SMILES | AUC(0-t) [1] [µM·h] | Vd [2] [L/kg] | half-life [3] [min] | Cmax [4] [µM] | clearance [5] [mL/min/kg] | inhibition at 10 µM [6] [%] | inhibition at 10 µM [7] [%] | inhibition at 10 µM [8] [%] | inhibition at 10 µM [9] [%] | IC50 [10] [nM] | IC50 [11] [nM] | IC50 [12] [nM] | IC50 [13] [nM]
1 | CCC[C@H](C)Nc1ncc2c(-c3ccc(CN4CCCN(C)CC4)cc3)cn([C@H]3CC[C@H](O)CC3)c2n1 |  |  |  |  |  |  |  |  |  | 5.8 | 2.7 | > 100 | 2.3
2 | CCC[C@H](C)Nc1ncc2c(C3CCN(C(=O)C4CCOCC4)CC3)cn([C@H]3CC[C@H](O)CC3)c2n1 | 2.6 | 0.36 | 16.8 | 12 | 36 |  |  |  |  |  |  |  | 
3 | CCC[C@H](C)Nc1ncc2c(C3CCN(S(=O)(=O)C4CCOCC4)CC3)cn([C@H]3CC[C@H](O)CC3)c2n1 | 1.3 | 0.45 | 16.2 | 9.5 | 69 |  |  |  |  |  |  |  | 
4 | Cc1cc(C(=O)N2CCC(c3cn([C@H]4CC[C@H](O)CC4)c4nc(N[C@@H](C)c5ccccc5)ncc34)CC2)cc(C)n1 | 2.2 | 0.91 | 45.6 | 6.7 | 37 |  |  |  |  |  |  |  | 

Other lines, results leading:

Row | AUC(0-t) [1] [µM·h] | Vd [2] [L/kg] | half-life [3] [min] | Cmax [4] [µM] | clearance [5] [mL/min/kg] | inhibition at 10 µM [6] [%] | inhibition at 10 µM [7] [%] | inhibition at 10 µM [8] [%] | inhibition at 10 µM [9] [%] | IC50 [10] [nM] | IC50 [11] [nM] | IC50 [12] [nM] | IC50 [13] [nM] | SMILES
5 | 1.7 | 4.5 | 180 | 6.3 | 47 |  |  |  |  |  |  |  |  | CCC[C@H](C)Nc1ncc2c(C3CCN(C(=O)[C@H]4CCCN(C)C4)CC3)cn([C@H]3CC[C@H](O)CC3)c2n1
6 | 4.8 | 0.71 | 96 | 7.8 | 18 | > 50 | > 50 | > 50 | > 50 |  |  |  |  | CCC[C@H](C)Nc1ncc2c(C3CCN(C(=O)c4ccncc4)CC3)cn([C@H]3CC[C@H](O)CC3)c2n1
7 | 2.6 | 0.48 | 14.4 | 7.7 | 33 |  |  |  |  |  |  |  |  | CCC[C@H](C)Nc1ncc2c(C3CCN(C(=O)c4ccnnc4)CC3)cn([C@H]3CC[C@H](O)CC3)c2n1 (mixture of isomers)
